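Exposure lasted 48 hours, with cells grown in 96-well plates and compounds tested at five concentrations. TGI: total growth inhibition.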
What was measured:
Assay in all cases: NCI tumour cell line growth inhibition, 48 h
[1] = system: SF-268 CNS
[2] = system: LOX IMVI melanoma
[3] = system: M14 melanoma
[4] = system: NCI-H522 lung
[5] = system: OVCAR-4 ovarian
[6] = system: HCT-15 colon
[7] = system: SR leukemia
[8] = system: OVCAR-3 ovarian
[9] = system: MDA-MB-435
[10] = system: COLO 205 colon
[11] = system: HOP-62 NSCLC
[12] = system: NCI-H460 lung
[13] = system: BT-549 breast
[14] = system: RPMI-8226 leukemia
[15] = system: MOLT-4 leukemia
[16] = system: KM12 colon
[17] = system: SK-MEL-5 melanoma
[18] = system: K-562 leukemia
[19] = system: DU-145 prostate
[20] = system: HCT-116 colon
[21] = system: UACC-257 melanoma
[22] = system: T-47D breast
[23] = system: 786-0 renal
[24] = system: IGROV1 ovarian
[25] = system: HL-60(TB) leukemia
[26] = system: CCRF-CEM leukemia
[27] = system: MDA-N
[28] = system: SF-539 CNS
[29] = system: PC-3 prostate
[30] = system: SN12C renal
[31] = system: RXF 393 renal
[32] = system: UACC-62 melanoma
[33] = system: NCI-H23 lung
[34] = system: SNB-75 CNS
[35] = system: A549 NSCLC
[36] = system: UO-31 renal
[37] = system: SK-MEL-28 melanoma
[38] = system: SF-295 CNS
[39] = system: SW-620 colon
[40] = system: OVCAR-8 ovarian
[41] = system: U251 CNS
[42] = system: MDA-MB-231 breast
[43] = system: SK-OV-3 ovarian
[44] = system: MCF7 breast
[45] = system: OVCAR-5 ovarian
[46] = system: HT29 colon
[47] = system: HOP-92 NSCLC
[48] = system: HCC-2998 colon
[49] = system: SNB-19 CNS
[50] = system: NCI/ADR-RES ovarian
[51] = system: MALME-3M melanoma
[52] = system: HS 578T breast
[53] = system: NCI-H226 lung
[54] = system: TK-10 renal
[55] = system: CAKI-1 renal
[56] = system: A498 renal
[57] = system: SK-MEL-2 melanoma
[58] = system: ACHN renal
[59] = system: EKVX NSCLC

Which TGI [1] does the source give for `COc1ccc(-c2nc(-c3cnccn3)n(Cc3ccccc3)n2)cc1` here?
Its TGI is greater than 100 µM.

What about the TGI [2] of the same compound?
Its TGI is greater than 100 µM.

And the TGI [3]?
Its TGI is greater than 100 µM.

And the TGI [4]?
The TGI was greater than 100 µM.

What about the TGI [5] of the same compound?
Its TGI is greater than 100 µM.

What about the TGI [6] of the same compound?
Its TGI is greater than 100 µM.

And the TGI [7]?
The TGI was greater than 100 µM.

And the TGI [8]?
The TGI was greater than 100 µM.

And the TGI [9]?
Its TGI is greater than 100 µM.

And the TGI [10]?
The TGI was greater than 100 µM.

And the TGI [11]?
Its TGI is greater than 100 µM.

And the TGI [12]?
The TGI was greater than 100 µM.

And the TGI [13]?
The TGI was greater than 100 µM.

And the TGI [14]?
The TGI was greater than 100 µM.

What about the TGI [15] of the same compound?
The TGI was greater than 100 µM.

And the TGI [16]?
The TGI was greater than 100 µM.

And the TGI [17]?
The TGI was greater than 100 µM.

What about the TGI [18] of the same compound?
Its TGI is greater than 100 µM.

And the TGI [19]?
The TGI was greater than 100 µM.

What about the TGI [20] of the same compound?
The TGI was greater than 100 µM.

And the TGI [21]?
The TGI was greater than 100 µM.

What about the TGI [22] of the same compound?
The TGI was greater than 100 µM.

What about the TGI [23] of the same compound?
The TGI was greater than 100 µM.

What about the TGI [24] of the same compound?
The TGI was greater than 100 µM.

And the TGI [25]?
The TGI was greater than 100 µM.

And the TGI [26]?
The TGI was greater than 100 µM.

And the TGI [27]?
Its TGI is greater than 100 µM.

And the TGI [28]?
The TGI was greater than 100 µM.

And the TGI [29]?
The TGI was greater than 100 µM.

What about the TGI [30] of the same compound?
Its TGI is greater than 100 µM.

And the TGI [31]?
Its TGI is greater than 100 µM.

And the TGI [32]?
Its TGI is greater than 100 µM.

What about the TGI [33] of the same compound?
Its TGI is greater than 100 µM.

What about the TGI [34] of the same compound?
The TGI was greater than 100 µM.

What about the TGI [35] of the same compound?
The TGI was greater than 100 µM.

What about the TGI [36] of the same compound?
The TGI was greater than 100 µM.

What about the TGI [37] of the same compound?
Its TGI is greater than 100 µM.

And the TGI [38]?
Its TGI is greater than 100 µM.

What about the TGI [39] of the same compound?
Its TGI is greater than 100 µM.

What about the TGI [40] of the same compound?
Its TGI is greater than 100 µM.

What about the TGI [41] of the same compound?
Its TGI is greater than 100 µM.

What about the TGI [42] of the same compound?
The TGI was greater than 100 µM.

What about the TGI [43] of the same compound?
Its TGI is greater than 100 µM.

And the TGI [44]?
The TGI was greater than 100 µM.

What about the TGI [45] of the same compound?
The TGI was greater than 100 µM.

And the TGI [46]?
Its TGI is greater than 100 µM.

What about the TGI [47] of the same compound?
Its TGI is greater than 100 µM.

And the TGI [48]?
Its TGI is greater than 100 µM.

And the TGI [49]?
Its TGI is greater than 100 µM.

What about the TGI [50] of the same compound?
The TGI was greater than 100 µM.

What does the source list for `CN1C=COC1N=C1CCCCC1` (configuration not stated)?
TGI [1]: > 100 µM; TGI [2]: > 100 µM; TGI [3]: > 100 µM; TGI [4]: > 100 µM; TGI [5]: > 100 µM; TGI [6]: > 100 µM; TGI [7]: > 100 µM; TGI [8]: > 100 µM; TGI [9]: > 100 µM; TGI [10]: > 100 µM; TGI [11]: > 100 µM; TGI [12]: > 100 µM; TGI [14]: > 100 µM; TGI [15]: > 100 µM; TGI [16]: > 100 µM; TGI [17]: > 100 µM; TGI [51]: > 100 µM; TGI [52]: > 100 µM; TGI [18]: > 100 µM; TGI [19]: > 100 µM; TGI [20]: > 100 µM; TGI [53]: > 100 µM; TGI [54]: > 100 µM; TGI [55]: 9.16 µM; TGI [22]: > 100 µM; TGI [23]: > 100 µM; TGI [24]: > 100 µM; TGI [25]: > 100 µM; TGI [26]: > 100 µM; TGI [27]: > 100 µM; TGI [28]: > 100 µM; TGI [29]: > 100 µM; TGI [56]: > 100 µM; TGI [30]: > 100 µM; TGI [31]: > 100 µM; TGI [32]: > 100 µM; TGI [33]: > 100 µM; TGI [34]: > 100 µM; TGI [35]: > 100 µM; TGI [36]: > 100 µM; TGI [57]: > 100 µM; TGI [37]: > 100 µM; TGI [38]: > 100 µM; TGI [39]: 12.1 µM; TGI [40]: > 100 µM; TGI [41]: > 100 µM; TGI [42]: > 100 µM; TGI [43]: > 100 µM; TGI [44]: > 100 µM; TGI [45]: > 100 µM; TGI [46]: > 100 µM; TGI [47]: > 100 µM; TGI [48]: > 100 µM; TGI [58]: > 100 µM; TGI [59]: > 100 µM; TGI [49]: 12 µM; TGI [50]: > 100 µM

— PubChem BioAssay (NCI)
